Assay results taken from patent US20240398828A1, “HETERO-ATOM CONTAINING COMPOUNDS AND USES THEREOF” (Kumquat Biosciences Inc., priority 2021, published 2024).

How the values were obtained:
[1] = molecular target: T1, PTPN2 (i.e., TC-PTP) (Homo sapiens, UniProt P17706); assay: Phosphatase activity assay (DiFMUP substrate), PTPN2; type: biochemical; conditions: compounds binned ≤1 uM or >1 uM
T1 sequence (P17706 1-415): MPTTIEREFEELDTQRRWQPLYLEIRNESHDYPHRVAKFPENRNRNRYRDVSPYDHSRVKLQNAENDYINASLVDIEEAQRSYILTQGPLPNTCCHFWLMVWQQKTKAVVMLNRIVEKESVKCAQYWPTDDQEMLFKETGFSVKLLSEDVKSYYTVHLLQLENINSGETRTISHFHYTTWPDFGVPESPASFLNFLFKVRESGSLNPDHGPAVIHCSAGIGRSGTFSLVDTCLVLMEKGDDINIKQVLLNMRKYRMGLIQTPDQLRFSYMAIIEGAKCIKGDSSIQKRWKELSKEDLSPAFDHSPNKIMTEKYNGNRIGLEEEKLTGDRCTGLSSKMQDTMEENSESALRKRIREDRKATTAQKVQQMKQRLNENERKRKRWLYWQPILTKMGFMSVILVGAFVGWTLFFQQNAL
Method in brief: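 Continuous fluorogenic readout of DiFMUP dephosphorylation at room temperature, substrate set at Km for each phosphatase (about 45 μM in the PTPN2 assay). The buffer contains 1 mM DTT and 0.001% Tween-20, pH 7.5.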

[2] = molecular target: T2, PTPN1 (i.e., PTP1B) (Homo sapiens, UniProt P18031); assay: Phosphatase activity assay (DiFMUP substrate), PTP1B; type: biochemical; conditions: compounds binned ≤1 uM or >1 uM
T2 sequence (P18031 1-435): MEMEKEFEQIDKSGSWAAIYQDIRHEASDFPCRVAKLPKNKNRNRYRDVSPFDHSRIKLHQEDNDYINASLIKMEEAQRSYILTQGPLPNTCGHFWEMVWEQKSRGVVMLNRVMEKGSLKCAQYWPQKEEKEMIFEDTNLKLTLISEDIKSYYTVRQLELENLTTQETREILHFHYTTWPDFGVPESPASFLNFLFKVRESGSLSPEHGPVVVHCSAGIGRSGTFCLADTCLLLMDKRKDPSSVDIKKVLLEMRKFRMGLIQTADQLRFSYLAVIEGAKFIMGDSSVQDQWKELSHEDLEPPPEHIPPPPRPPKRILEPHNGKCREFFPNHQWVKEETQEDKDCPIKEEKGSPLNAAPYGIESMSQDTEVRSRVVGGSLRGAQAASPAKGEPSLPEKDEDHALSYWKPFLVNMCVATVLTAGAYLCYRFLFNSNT
Method in brief: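 Enzyme (e.g. PTPN2 0.025 ng/ul) mixed about 2 min with compound at 10 serial concentrations in 50 mM HEPES pH 7.5, 150 mM NaCl, 0.5 mM EDTA, 1 mM DTT, 0.001% Tween-20 at room temperature. DiFMUP added at each enzyme's Km (about 45 μM for PTPN2). DiFMU fluorescence (ex 360/em 450 nm) followed 15-30 min; IC50 from 4-parameter fit of rates.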

| SMILES | IC50 [1] [nM] | IC50 [2] [nM] |
| --- | --- | --- |
| Cn1cc(-c2ccc(O)c(N3CC(=O)NS3(=O)=O)c2F)nc1O [Compound 527, 5-(2-fluoro-6-hydroxy-3-(2-hydroxy-1-methyl-1H-imidazol-4-yl)phenyl)-1,2,5-thiadiazolidin-3-one 1,1-dioxide] | ≤ 1000 | ≤ 1000 |
| CCCCNc1ccc(-c2ccc(O)c(N3CC(=O)NS3(=O)=O)c2F)cn1 [Compound 215, 5-(3-(6-(butylamino)pyridin-3-yl)-2-fluoro-6-hydroxyphenyl)-1,2,5-thiadiazolidin-3-one 1,1-dioxide] | ≤ 1000 | ≤ 1000 |
| C=Cc1cc(-c2ccc(O)c(N3CC(=O)NS3(=O)=O)c2F)[nH]n1 [Compound 312, 5-(2-fluoro-6-hydroxy-3-(3-vinyl-1H-pyrazol-5-yl)phenyl)-1,2,5-thiadiazolidin-3-one 1,1-dioxide] | ≤ 1000 | ≤ 1000 |
| O=C1CN(c2c(O)ccc(-c3[nH]nc(C4CC4)c3F)c2F)S(=O)(=O)N1 [Compound 314, 5-(3-(3-cyclopropyl-4-fluoro-1H-pyrazol-5-yl)-2-fluoro-6-hydroxyphenyl)-1,2,5-thiadiazolidin-3-one 1,1-dioxide] | ≤ 1000 | ≤ 1000 |
| O=C1CN(c2c(O)ccc(-c3cc(N4CCC(O)C4)n[nH]3)c2F)S(=O)(=O)N1 (stereo not drawn) [Compound 448, 5-(2-fluoro-6-hydroxy-3-(3-(3-hydroxypyrrolidin-1-yl)-1H-pyrazol-5-yl)phenyl)-1,2,5-thiadiazolidin-3-one 1,1-dioxide] | ≤ 1000 | ≤ 1000 |
| O=C1CN(c2c(O)ccc(-c3ccc(N4CCCC4)nc3)c2F)S(=O)(=O)N1 [Compound 177, 5-(2-fluoro-6-hydroxy-3-(6-(pyrrolidin-1-yl)pyridin-3-yl)phenyl)-1,2,5-thiadiazolidin-3-one 1,1-dioxide] | ≤ 1000 | ≤ 1000 |
| CC(C)CCn1cc(-c2ccc(O)c(N3CC(=O)NS3(=O)=O)c2F)c(=O)[nH]1 [Compound 444, 5-(2-fluoro-6-hydroxy-3-(1-isopentyl-3-oxo-2,3-dihydro-1H-pyrazol-4-yl)phenyl)-1,2,5-thiadiazolidin-3-one 1,1-dioxide] | ≤ 1000 | ≤ 1000 |
| O=C1CN(c2c(O)ccc(-c3cc(N4CCC5(CCC5)C4)n[nH]3)c2F)S(=O)(=O)N1 [Compound 248, 5-(3-(3-(6-azaspiro[3.4]octan-6-yl)-1H-pyrazol-5-yl)-2-fluoro-6-hydroxyphenyl)-1,2,5-thiadiazolidin-3-one 1,1-dioxide] | ≤ 1000 | ≤ 1000 |
| CN1CCN(c2ccc(-c3ccc(O)c(N4CC(=O)NS4(=O)=O)c3F)cn2)CC1 [Compound 202, 5-(2-fluoro-6-hydroxy-3-(6-(4-methylpiperazin-1-yl)pyridin-3-yl)phenyl)-1,2,5-thiadiazolidin-3-one 1,1-dioxide] | ≤ 1000 | ≤ 1000 |
| O=C1CN(c2c(O)ccc(-c3ccc4[nH]ncc4c3)c2F)S(=O)(=O)N1 [Compound 114, 5-(2-fluoro-6-hydroxy-3-(1H-indazol-5-yl)phenyl)-1,2,5-thiadiazolidin-3-one 1,1-dioxide] | ≤ 1000 | ≤ 1000 |
| CC(N)c1cc(-c2ccc(O)c(N3CC(=O)NS3(=O)=O)c2F)[nH]n1 (stereo not drawn) [Compound 297, 5-(3-(3-(1-aminoethyl)-1H-pyrazol-5-yl)-2-fluoro-6-hydroxyphenyl)-1,2,5-thiadiazolidin-3-one 1,1-dioxide] | ≤ 1000 | ≤ 1000 |
| CN1CC(n2cc(-c3ccc(O)c(N4CC(=O)NS4(=O)=O)c3F)cn2)C1 [Compound 310, 5-(2-fluoro-6-hydroxy-3-(1-(1-methylazetidin-3-yl)-1H-pyrazol-4-yl)phenyl)-1,2,5-thiadiazolidin-3-one 1,1-dioxide] | ≤ 1000 | ≤ 1000 |
| O=C1CN(c2c(O)ccc(-c3nnc(-c4ccccc4)o3)c2F)S(=O)(=O)N1 [Compound 121, 5-(2-fluoro-6-hydroxy-3-(5-phenyl-1,3,4-oxadiazol-2-yl)phenyl)-1,2,5-thiadiazolidin-3-one 1,1-dioxide] | > 1000 | > 1000 |
| O=C1CN(c2c(O)ccc(-c3cn(-c4ccc(F)cc4)cn3)c2F)S(=O)(=O)N1 [Compound 209, 5-(2-fluoro-3-(1-(4-fluorophenyl)-1H-imidazol-4-yl)-6-hydroxyphenyl)-1,2,5-thiadiazolidin-3-one 1,1-dioxide] | ≤ 1000 | ≤ 1000 |
| CC1CC=C(c2ccc(O)c(N3CC(=O)NS3(=O)=O)c2F)CN1 (stereo not drawn) [Compound 470, 5-(2-fluoro-6-hydroxy-3-(6-methyl-1,2,5,6-tetrahydropyridin-3-yl)phenyl)-1,2,5-thiadiazolidin-3-one 1,1-dioxide] | ≤ 1000 | ≤ 1000 |
| O=C1CN(c2c(O)ccc(-c3ccc(NC(=O)C4CC4)cc3)c2F)S(=O)(=O)N1 [Compound 395, N-(3′-(1,1-dioxido-4-oxo-1,2,5-thiadiazolidin-2-yl)-2′-fluoro-4′-hydroxy-[1,1′-biphenyl]-4-yl)cyclopropanecarboxamide] | ≤ 1000 | ≤ 1000 |
| Cc1csc(-c2ccc(O)c(N3CC(=O)NS3(=O)=O)c2F)c1 [Compound 103, 5-(2-fluoro-6-hydroxy-3-(4-methylthiophen-2-yl)phenyl)-1,2,5-thiadiazolidin-3-one 1,1-dioxide] | ≤ 1000 | ≤ 1000 |
| O=C1CN(c2c(O)ccc(-c3cnn(CC4CCOCC4)c3)c2F)S(=O)(=O)N1 [Compound 171, 5-(2-fluoro-6-hydroxy-3-(1-((tetrahydro-2H-pyran-4-yl)methyl)-1H-pyrazol-4-yl)phenyl)-1,2,5-thiadiazolidin-3-one 1,1-dioxide] | ≤ 1000 | ≤ 1000 |
| O=C1CN(c2c(O)ccc(-c3cc[nH]c3)c2F)S(=O)(=O)N1 [Compound 129, 5-(2-fluoro-6-hydroxy-3-(1H-pyrrol-3-yl)phenyl)-1,2,5-thiadiazolidin-3-one 1,1-dioxide] | ≤ 1000 | ≤ 1000 |
| Cc1ncc(-c2ccc(O)c(N3CC(=O)NS3(=O)=O)c2F)[nH]1 [Compound 263, 5-(2-fluoro-6-hydroxy-3-(2-methyl-1H-imidazol-5-yl)phenyl)-1,2,5-thiadiazolidin-3-one 1,1-dioxide] | ≤ 1000 | ≤ 1000 |
| O=C1CN(c2c(O)ccc(-c3cnc(NS(=O)(=O)C4CC4)nc3)c2F)S(=O)(=O)N1 [Compound 234, N-(5-(3-(1,1-dioxido-4-oxo-1,2,5-thiadiazolidin-2-yl)-2-fluoro-4-hydroxyphenyl)pyrimidin-2-yl)cyclopropanesulfonamide] | ≤ 1000 | ≤ 1000 |
| Cc1ccc(-c2ccc(O)c(N3CC(=O)NS3(=O)=O)c2F)cn1 [Compound 180, 5-(2-fluoro-6-hydroxy-3-(6-methylpyridin-3-yl)phenyl)-1,2,5-thiadiazolidin-3-one 1,1-dioxide] | ≤ 1000 | ≤ 1000 |
| CC1(n2cc(-c3ccc(O)c(N4CC(=O)NS4(=O)=O)c3F)cn2)CC1 [Compound 324, 5-(2-fluoro-6-hydroxy-3-(1-(1-methylcyclopropyl)-1H-pyrazol-4-yl)phenyl)-1,2,5-thiadiazolidin-3-one 1,1-dioxide] | ≤ 1000 | ≤ 1000 |
| O=C1CN(c2c(O)ccc(-c3cnn(C4CN(C5CC5)C4)c3)c2F)S(=O)(=O)N1 [Compound 275, 5-(3-(1-(1-cyclopropylazetidin-3-yl)-1H-pyrazol-4-yl)-2-fluoro-6-hydroxyphenyl)-1,2,5-thiadiazolidin-3-one 1,1-dioxide] | ≤ 1000 | ≤ 1000 |
| O=C1CN(c2c(O)ccc(-c3cc(N4CCOCC4)n[nH]3)c2F)S(=O)(=O)N1 [Compound 286, 5-(2-fluoro-6-hydroxy-3-(3-morpholino-1H-pyrazol-5-yl)phenyl)-1,2,5-thiadiazolidin-3-one 1,1-dioxide] | ≤ 1000 | ≤ 1000 |
| N#Cc1cccc(Cn2cc(-c3ccc(O)c(N4CC(=O)NS4(=O)=O)c3F)cn2)c1 [Compound 161, 3-((4-(3-(1,1-dioxido-4-oxo-1,2,5-thiadiazolidin-2-yl)-2-fluoro-4-hydroxyphenyl)-1H-pyrazol-1-yl)methyl)benzonitrile] | ≤ 1000 | ≤ 1000 |
| O=C1CN(c2c(O)ccc(-c3cnn(C4CCOCC4)c3)c2F)S(=O)(=O)N1 [Compound 214, 5-(2-fluoro-6-hydroxy-3-(1-(tetrahydro-2H-pyran-4-yl)-1H-pyrazol-4-yl)phenyl)-1,2,5-thiadiazolidin-3-one 1,1-dioxide] | ≤ 1000 | ≤ 1000 |
